Tests used:
Format in all cases: in vivo
[1] = tested on: redroot pigweed (Amaranthus retroflexus); assay: Test G Post-Emergence Protocol; details: Amaranthus retroflexus, post-emergence, 312 h, read-out: Pigweed, Redroot damage rating; for pest or weed control at 15.625 g/ha: 15.625 g ai/ha, evaluated after 13 days (100=total damage to plant; 0=no damage to plant); for pest or weed control at 62.5 g/ha: 62.5 g ai/ha; for pest or weed control at 62.5 g/ha / pest or weed control at 250 g/ha: evaluated after 13 days, 100=total damage to plant, 0=no damage to plant; for pest or weed control at 250 g/ha: 250 g ai/ha
Procedure, shortened: (§1)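 Scores run 0 (no damage) to 100 (total damage) and were taken 13 days after spraying. Plants had been raised in pots for 8 days under glasshouse control (24/16 °C, 14 h photoperiod, 65% humidity) and then treated at 15.625, 62.5 or 250 g/ha.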

corn (Zea mays) [2] = assay: Test G Post-Emergence Protocol; details: Zea mays, post-emergence, 312 h, read-out: Corn damage rating; for plant injury at 15.625 g/ha: 15.625 g ai/ha, evaluated after 13 days (100=total damage to plant; 0=no damage to plant); for plant injury at 62.5 g/ha: 62.5 g ai/ha; for plant injury at 62.5 g/ha / plant injury at 250 g/ha: evaluated after 13 days, 100=total damage to plant, 0=no damage to plant; for plant injury at 250 g/ha: 250 g ai/ha
Procedure, shortened: as §1

[3] = tested on: barnyardgrass (Echinochloa crus-galli); assay: Test G Post-Emergence Protocol; details: Echinochloa crus-galli, post-emergence, 312 h, read-out: Barnyardgrass damage rating; for pest or weed control at 15.625 g/ha: 15.625 g ai/ha, evaluated after 13 days (100=total damage to plant; 0=no damage to plant); for pest or weed control at 62.5 g/ha: 62.5 g ai/ha; for pest or weed control at 62.5 g/ha / pest or weed control at 250 g/ha: evaluated after 13 days, 100=total damage to plant, 0=no damage to plant; for pest or weed control at 250 g/ha: 250 g ai/ha
Procedure, shortened: as §1

[4] = tested on: giant foxtail (Setaria faberi); assay: Test G Post-Emergence Protocol; details: Setaria faberi, post-emergence, 312 h, read-out: Foxtail, Giant damage rating; for pest or weed control at 15.625 g/ha: 15.625 g ai/ha, evaluated after 13 days (100=total damage to plant; 0=no damage to plant); for pest or weed control at 62.5 g/ha: 62.5 g ai/ha; for pest or weed control at 62.5 g/ha / pest or weed control at 250 g/ha: evaluated after 13 days, 100=total damage to plant, 0=no damage to plant; for pest or weed control at 250 g/ha: 250 g ai/ha
Procedure, shortened: as §1

[5] = tested on: ivy-leaved morning glory (Ipomoea hederacea); assay: Test G Post-Emergence Protocol; details: Ipomoea, post-emergence, 312 h, read-out: Morningglory, Ivy-leaved damage rating; for pest or weed control at 15.625 g/ha: 15.625 g ai/ha, evaluated after 13 days (100=total damage to plant; 0=no damage to plant); for pest or weed control at 62.5 g/ha: 62.5 g ai/ha; for pest or weed control at 62.5 g/ha / pest or weed control at 250 g/ha: evaluated after 13 days, 100=total damage to plant, 0=no damage to plant; for pest or weed control at 250 g/ha: 250 g ai/ha
Procedure, shortened: as §1

[6] = tested on: velvetleaf (Abutilon theophrasti); assay: Test G Post-Emergence Protocol; details: Abutilon theophrasti, post-emergence, 312 h, read-out: Velvetleaf damage rating; for pest or weed control at 15.625 g/ha: 15.625 g ai/ha, evaluated after 13 days (100=total damage to plant; 0=no damage to plant); for pest or weed control at 62.5 g/ha: 62.5 g ai/ha; for pest or weed control at 62.5 g/ha / pest or weed control at 250 g/ha: evaluated after 13 days, 100=total damage to plant, 0=no damage to plant; for pest or weed control at 250 g/ha: 250 g ai/ha
Procedure, shortened: as §1

[7] = tested on: redroot pigweed (Amaranthus retroflexus); assay: Test G Pre-Emergence Protocol; details: Amaranthus retroflexus, pre-emergence, 312 h, evaluated after 13 days; for pest or weed control at 15.625 g/ha: 15.625 g ai/ha; for pest or weed control at 15.625 g/ha / pest or weed control at 250 g/ha: read-out: Pigweed, Redroot damage rating (100=total damage to plant; 0=no damage to plant); for pest or weed control at 62.5 g/ha: 62.5 g ai/ha, 100=total damage to plant, 0=no damage to plant, read-out: Pigweed, Redroot damage rating; for pest or weed control at 250 g/ha: 250 g ai/ha
Procedure, shortened: (§2)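 Test compound in 0.5% Tween 20 acetone/water (50:50) was applied at three rates (15.625, 62.5, 250 g/ha) to soil sown one day earlier. After 13 days plants were scored for injury, where 0 means unaffected and 100 means completely damaged.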

corn (Zea mays) [8] = assay: Test G Pre-Emergence Protocol; details: Zea mays, pre-emergence, 312 h, evaluated after 13 days; for plant injury at 15.625 g/ha: 15.625 g ai/ha; for plant injury at 15.625 g/ha / plant injury at 250 g/ha: read-out: Corn damage rating (100=total damage to plant; 0=no damage to plant); for plant injury at 62.5 g/ha: 62.5 g ai/ha, 100=total damage to plant, 0=no damage to plant, read-out: Corn damage rating; for plant injury at 250 g/ha: 250 g ai/ha
Procedure, shortened: as §2

[9] = tested on: barnyardgrass (Echinochloa crus-galli); assay: Test G Pre-Emergence Protocol; details: Echinochloa crus-galli, pre-emergence, 312 h, evaluated after 13 days; for pest or weed control at 15.625 g/ha: 15.625 g ai/ha; for pest or weed control at 15.625 g/ha / pest or weed control at 250 g/ha: read-out: Barnyardgrass damage rating (100=total damage to plant; 0=no damage to plant); for pest or weed control at 62.5 g/ha: 62.5 g ai/ha, 100=total damage to plant, 0=no damage to plant, read-out: Barnyardgrass damage rating; for pest or weed control at 250 g/ha: 250 g ai/ha
Procedure, shortened: as §2

[10] = tested on: giant foxtail (Setaria faberi); assay: Test G Pre-Emergence Protocol; details: Setaria faberi, pre-emergence, 312 h, evaluated after 13 days; for pest or weed control at 15.625 g/ha: 15.625 g ai/ha; for pest or weed control at 15.625 g/ha / pest or weed control at 250 g/ha: read-out: Foxtail, Giant damage rating (100=total damage to plant; 0=no damage to plant); for pest or weed control at 62.5 g/ha: 62.5 g ai/ha, 100=total damage to plant, 0=no damage to plant, read-out: Foxtail, Giant damage rating; for pest or weed control at 250 g/ha: 250 g ai/ha
Procedure, shortened: as §2

[11] = tested on: ivy-leaved morning glory (Ipomoea hederacea); assay: Test G Pre-Emergence Protocol; details: Ipomoea, pre-emergence, 312 h, evaluated after 13 days; for pest or weed control at 15.625 g/ha: 15.625 g ai/ha; for pest or weed control at 15.625 g/ha / pest or weed control at 250 g/ha: read-out: Morningglory, Ivy-leaved damage rating (100=total damage to plant; 0=no damage to plant); for pest or weed control at 62.5 g/ha: 62.5 g ai/ha, 100=total damage to plant, 0=no damage to plant, read-out: Morningglory, Ivy-leaved damage rating; for pest or weed control at 250 g/ha: 250 g ai/ha
Procedure, shortened: as §2

[12] = tested on: velvetleaf (Abutilon theophrasti); assay: Test G Pre-Emergence Protocol; details: Abutilon theophrasti, pre-emergence, 312 h, evaluated after 13 days; for pest or weed control at 15.625 g/ha: 15.625 g ai/ha; for pest or weed control at 15.625 g/ha / pest or weed control at 250 g/ha: read-out: Velvetleaf damage rating (100=total damage to plant; 0=no damage to plant); for pest or weed control at 62.5 g/ha: 62.5 g ai/ha, 100=total damage to plant, 0=no damage to plant, read-out: Velvetleaf damage rating; for pest or weed control at 250 g/ha: 250 g ai/ha
Procedure, shortened: as §2

Row | Compound | pest or weed control at 15.625 g/ha [1] | pest or weed control at 62.5 g/ha [1] | pest or weed control at 250 g/ha [1] | plant injury at 15.625 g/ha (corn (Zea mays) [2]) | plant injury at 62.5 g/ha (corn (Zea mays) [2]) | plant injury at 250 g/ha (corn (Zea mays) [2]) | pest or weed control at 15.625 g/ha [3] | pest or weed control at 62.5 g/ha [3] | pest or weed control at 250 g/ha [3] | pest or weed control at 15.625 g/ha [4] | pest or weed control at 62.5 g/ha [4] | pest or weed control at 250 g/ha [4] | pest or weed control at 15.625 g/ha [5] | pest or weed control at 62.5 g/ha [5] | pest or weed control at 250 g/ha [5] | pest or weed control at 15.625 g/ha [6] | pest or weed control at 62.5 g/ha [6] | pest or weed control at 250 g/ha [6] | pest or weed control at 15.625 g/ha [7] | pest or weed control at 62.5 g/ha [7] | further results
1 | CCCOc1cc(OC(F)(F)F)cc(C2CN(C)C(=O)C2C(=O)Nc2cccc(F)c2F)c1 (stereo not drawn) [Compound 1693] | 20% | 50% | 60% | 0% | 10% | 70% | 0% | 30% | 80% | 0% | 60% | 80% | 0% | 50% | 60% | 0% | 30% | 20% | 0% | 0% | pest or weed control at 250 g/ha [7]: 10%; plant injury at 15.625 g/ha (corn (Zea mays) [8]): 0%; plant injury at 62.5 g/ha (corn (Zea mays) [8]): 30%; plant injury at 250 g/ha (corn (Zea mays) [8]): 40%; pest or weed control at 15.625 g/ha [9]: 0%; pest or weed control at 62.5 g/ha [9]: 70%; pest or weed control at 250 g/ha [9]: 70%; pest or weed control at 15.625 g/ha [10]: 0%; pest or weed control at 62.5 g/ha [10]: 50%; pest or weed control at 250 g/ha [10]: 70%; pest or weed control at 15.625 g/ha [11]: 0%; pest or weed control at 62.5 g/ha [11]: 20%; pest or weed control at 250 g/ha [11]: 20%; pest or weed control at 15.625 g/ha [12]: 0%; pest or weed control at 62.5 g/ha [12]: 0%; pest or weed control at 250 g/ha [12]: 10%
2 | Cc1c(F)cccc1NC(=O)[C@@H]1C(=O)N(C)C[C@H]1c1cccc(C(C)(C)F)c1 (racemic) [Compound 1827] | 0% | 0% | 0% | 0% | 10% | 60% | 0% | 70% | 80% | 50% | 80% | 80% | 0% | 10% | 10% | 0% | 0% | 40% | 0% | 0% | pest or weed control at 250 g/ha [7]: 0%; plant injury at 15.625 g/ha (corn (Zea mays) [8]): 0%; plant injury at 62.5 g/ha (corn (Zea mays) [8]): 0%; plant injury at 250 g/ha (corn (Zea mays) [8]): 50%; pest or weed control at 15.625 g/ha [9]: 0%; pest or weed control at 62.5 g/ha [9]: 80%; pest or weed control at 250 g/ha [9]: 90%; pest or weed control at 15.625 g/ha [10]: 40%; pest or weed control at 62.5 g/ha [10]: 90%; pest or weed control at 250 g/ha [10]: 90%; pest or weed control at 15.625 g/ha [11]: 0%; pest or weed control at 62.5 g/ha [11]: 0%; pest or weed control at 250 g/ha [11]: 20%; pest or weed control at 15.625 g/ha [12]: 0%; pest or weed control at 62.5 g/ha [12]: 0%; pest or weed control at 250 g/ha [12]: 10%

From patent publication US12077503B2, “Substituted cyclic amides and their use as herbicides” (FMC CORPORATION, priority 2015, dated 2024)
